Assay results from the supplement of paper PMC13207355.

Columns and labels:
Conditions in all cases: exposure time: 72 h
[1] = test system: E28 (patient-derived glioblastoma stem cells of classical subtype); assay: phenotypic distance (Euclidean, principal components) from DMSO controls (arbitrary units); higher = stronger morphological change
[2] = test system: E13 (patient-derived glioblastoma stem cells of classical subtype); assay: as above
[3] = test system: FT3469 (normal neural stem cell line); assay: as above
[4] = test system: E34 (patient-derived glioblastoma stem cells of proneural subtype); assay: as above
[5] = test system: E31 (patient-derived glioblastoma stem cells of proneural subtype); assay: as above
[6] = test system: E57 (patient-derived glioblastoma stem cells of mesenchymal subtype); assay: as above
[7] = test system: E21 (patient-derived glioblastoma stem cells of mesenchymal subtype); assay: as above
[8] = test system: E28; assay: surviving fraction (nuclei count normalised to DMSO); higher = more cells surviving (less toxic)
[9] = test system: E13; assay: as above
[10] = test system: FT3469; assay: as above
[11] = test system: E34; assay: as above
[12] = test system: E31; assay: as above
[13] = test system: E57; assay: as above
[14] = test system: E21; assay: as above
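Wherever phenotypic distance (Euclidean, principal components) from DMSO controls is given: cell Painting imaging in 384-well plates, CellProfiler features reduced to at least 20 principal components, Euclidean distance versus same-plate DMSO vehicle wells (0.1% v/v), median over six images per well.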
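Wherever surviving fraction (nuclei count normalised to DMSO) is given: nuclei counted by high-content imaging of Hoechst-stained cells in laminin-coated 384-well plates, relative to 0.1% DMSO vehicle wells, with staurosporine as cell-death control.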

COC(=O)Nc1nc2cc(C(=O)c3cccs3)ccc2[nH]1 [Nocodazole]
Conditions | phenotypic distance | surviving fraction
[1], 4.11523 nM | 2.22 | –
[1], 12.34567901 nM | 2.63 | –
[1], 37.037 nM | 2.97 | –
[1], 111.1111111 nM | 3.74 | –
[1], 333.333 nM | 3.59 | –
[1], 1000 nM | 4.6 | –
[1], 3000 nM | 5.85 | –
[2], 4.11523 nM | 6.13 | –
[2], 12.34567901 nM | 4.73 | –
[2], 37.037 nM | 5.56 | –
[2], 111.1111111 nM | 6.89 | –
[2], 333.333 nM | 6.42 | –
[2], 1000 nM | 6.56 | –
[2], 3000 nM | 9.87 | –
[3], 4.11523 nM | 3.38 | –
[3], 12.34567901 nM | 3.38 | –
[3], 37.037 nM | 3.11 | –
[3], 111.1111111 nM | 2.9 | –
[3], 333.333 nM | 3.84 | –
[3], 1000 nM | 5.03 | –
[3], 3000 nM | 4.79 | –
[4], 4.11523 nM | 3.24 | –
[4], 12.34567901 nM | 3.27 | –
[4], 37.037 nM | 4.43 | –
[4], 111.1111111 nM | 4.49 | –
[4], 333.333 nM | 5.97 | –
[4], 1000 nM | 8.12 | –
[4], 3000 nM | 7.56 | –
[5], 4.11523 nM | 4.08 | –
[5], 12.34567901 nM | 3.99 | –
[5], 37.037 nM | 5.49 | –
[5], 111.1111111 nM | 6.17 | –
[5], 333.333 nM | 5.43 | –
[5], 1000 nM | 11.1 | –
[5], 3000 nM | 12 | –
[6], 4.11523 nM | 5.26 | –
[6], 12.34567901 nM | 5.57 | –
[6], 37.037 nM | 7.85 | –
[6], 111.1111111 nM | 6.23 | –
[6], 333.333 nM | 6.48 | –
[6], 1000 nM | 6.95 | –
[6], 3000 nM | 6.12 | –
[7], 4.11523 nM | 4.87 | –
[7], 12.34567901 nM | 4.76 | –
[7], 37.037 nM | 8.31 | –
[7], 111.1111111 nM | 9.95 | –
[7], 333.333 nM | 9.8 | –
[7], 1000 nM | 8.46 | –
[7], 3000 nM | 9.75 | –
[8], 4.11523 nM | – | 0.698
[8], 12.34567901 nM | – | 0.609
[8], 37.037 nM | – | 0.531
[8], 111.1111111 nM | – | 0.353
[8], 333.333 nM | – | 0.428
[8], 1000 nM | – | 0.267
[8], 3000 nM | – | 0.297
[9], 4.11523 nM | – | 0.286
[9], 12.34567901 nM | – | 0.309
[9], 37.037 nM | – | 0.238
[9], 111.1111111 nM | – | 0.193
[9], 333.333 nM | – | 0.228
[9], 1000 nM | – | 0.186
[9], 3000 nM | – | 0.178
[10], 4.11523 nM | – | 0.562
[10], 12.34567901 nM | – | 0.573
[10], 37.037 nM | – | 0.619
[10], 111.1111111 nM | – | 0.474
[10], 333.333 nM | – | 0.582
[10], 1000 nM | – | 0.382
[10], 3000 nM | – | 0.353
[11], 4.11523 nM | – | 0.543
[11], 12.34567901 nM | – | 0.541
[11], 37.037 nM | – | 0.488
[11], 111.1111111 nM | – | 0.469
[11], 333.333 nM | – | 0.394
[11], 1000 nM | – | 0.316
[11], 3000 nM | – | 0.433
[12], 4.11523 nM | – | 0.262
[12], 12.34567901 nM | – | 0.174
[12], 37.037 nM | – | 0.135
[12], 111.1111111 nM | – | 0.0743
[12], 333.333 nM | – | 0.0743
[12], 1000 nM | – | 0.058
[12], 3000 nM | – | 0.0327
[13], 4.11523 nM | – | 0.452
[13], 12.34567901 nM | – | 0.418
[13], 37.037 nM | – | 0.143
[13], 111.1111111 nM | – | 0.067
[13], 333.333 nM | – | 0.0805
[13], 1000 nM | – | 0.0687
[13], 3000 nM | – | 0.104
[14], 4.11523 nM | – | 0.506
[14], 12.34567901 nM | – | 0.54
[14], 37.037 nM | – | 0.116
[14], 111.1111111 nM | – | 0.101
[14], 333.333 nM | – | 0.118
[14], 1000 nM | – | 0.0883
[14], 3000 nM | – | 0.083

Cc1nc2ccccn2c(=O)c1CCN1CCC(C(=O)c2ccc(F)cc2)CC1 [Pirenperone]
Conditions | phenotypic distance | surviving fraction
[1], 4.1 nM | 0.892 | –
[1], 12.3 nM | 0.572 | –
[1], 37 nM | 0.636 | –
[1], 111.1 nM | 0.966 | –
[1], 333.3 nM | 0.52 | –
[1], 1000 nM | 0.489 | –
[1], 3000 nM | 0.806 | –
[2], 4.1 nM | 0.486 | –
[2], 12.3 nM | 0.42 | –
[2], 37 nM | 0.709 | –
[2], 111.1 nM | 0.86 | –
[2], 333.3 nM | 0.944 | –
[2], 1000 nM | 0.709 | –
[2], 3000 nM | 2.42 | –
[3], 4.1 nM | 0.618 | –
[3], 12.3 nM | 0.837 | –
[3], 37 nM | 0.619 | –
[3], 111.1 nM | 0.898 | –
[3], 333.3 nM | 0.764 | –
[3], 1000 nM | 0.995 | –
[3], 3000 nM | 1.03 | –
[4], 4.1 nM | 0.796 | –
[4], 12.3 nM | 0.78 | –
[4], 37 nM | 0.668 | –
[4], 111.1 nM | 0.579 | –
[4], 333.3 nM | 0.636 | –
[4], 1000 nM | 0.719 | –
[4], 3000 nM | 0.659 | –
[5], 4.1 nM | 0.618 | –
[5], 12.3 nM | 0.402 | –
[5], 37 nM | 0.608 | –
[5], 111.1 nM | 0.551 | –
[5], 333.3 nM | 0.266 | –
[5], 1000 nM | 0.44 | –
[5], 3000 nM | 0.761 | –
[6], 4.1 nM | 0.572 | –
[6], 12.3 nM | 0.766 | –
[6], 37 nM | 2.84 | –
[6], 111.1 nM | 0.668 | –
[6], 333.3 nM | 0.553 | –
[6], 1000 nM | 0.431 | –
[6], 3000 nM | 1.17 | –
[7], 4.1 nM | 1 | –
[7], 12.3 nM | 0.656 | –
[7], 37 nM | 0.874 | –
[7], 111.1 nM | 0.825 | –
[7], 333.3 nM | 0.769 | –
[7], 1000 nM | 0.729 | –
[7], 3000 nM | 0.884 | –
[8], 4.1 nM | – | 1.05
[8], 12.3 nM | – | 0.977
[8], 37 nM | – | 1.16
[8], 111.1 nM | – | 0.995
[8], 333.3 nM | – | 1.08
[8], 1000 nM | – | 1.07
[8], 3000 nM | – | 0.988
[9], 4.1 nM | – | 0.987
[9], 12.3 nM | – | 1.07
[9], 37 nM | – | 1.13
[9], 111.1 nM | – | 1.14
[9], 333.3 nM | – | 1.06
[9], 1000 nM | – | 1.02
[9], 3000 nM | – | 1.02
[10], 4.1 nM | – | 0.92
[10], 12.3 nM | – | 0.976
[10], 37 nM | – | 1.17
[10], 111.1 nM | – | 1.11
[10], 333.3 nM | – | 1.12
[10], 1000 nM | – | 1.05
[10], 3000 nM | – | 1.19
[11], 4.1 nM | – | 1.22
[11], 12.3 nM | – | 1.22
[11], 37 nM | – | 1.06
[11], 111.1 nM | – | 0.912
[11], 333.3 nM | – | 0.91
[11], 1000 nM | – | 1.01
[11], 3000 nM | – | 1.15
[12], 4.1 nM | – | 1.02
[12], 12.3 nM | – | 0.878
[12], 37 nM | – | 0.945
[12], 111.1 nM | – | 0.874
[12], 333.3 nM | – | 0.886
[12], 1000 nM | – | 0.857
[12], 3000 nM | – | 0.912
[13], 4.1 nM | – | 1.07
[13], 12.3 nM | – | 1.08
[13], 37 nM | – | 1.08
[13], 111.1 nM | – | 1.02
[13], 333.3 nM | – | 1.03
[13], 1000 nM | – | 1.03
[13], 3000 nM | – | 0.881
[14], 4.1 nM | – | 1.08
[14], 12.3 nM | – | 0.974
[14], 37 nM | – | 1.12
[14], 111.1 nM | – | 1.01
[14], 333.3 nM | – | 1.11
[14], 1000 nM | – | 1.12
[14], 3000 nM | – | 0.984
